Measured values from patent US10513522B2, “Azetidinyl phenyl, pyridyl or pyrazinyl carboxamide derivatives as JAK inhibitors” (Incyte Corporation, priority 2011, dated 2019).

Tested on: human JAK1 (a.a. 837-1142)
Assay: In vitro JAK kinase assay (HTRF, phosphorylation of biotinylated peptide), JAK1
Format: biochemical
Settings: ratio of IC50 at 1 mM ATP
Procedure: The catalytic activity of JAK1, JAK2 or JAK3 was assayed by measuring the phosphorylation of a biotinylated peptide. The phosphorylated peptide was detected by homogenous time resolved fluorescence (HTRF). […] Reactions were carried out at room temperature for 1 hour and then stopped with 20 μL 45 mM EDTA, 300 nM SA-APC, 6 nM Eu-Py20 in assay buffer (Perkin Elmer, Boston, Mass.). Binding to the Europium labeled antibody took place for 40 minutes and HTRF signal was measured on a Fusion plate reader (Perkin Elmer, Boston, Mass.).

Structure (SMILES) | JAK2/JAK1
N#CCC1(n2cc(-c3ccnc4[nH]ccc34)cn2)CN(c2cnc(C(=O)N[C@@H](C3CC3)C(F)(F)F)cn2)C1 [Example 42, 5-{3-(Cyanomethyl)-3-[4-(1H-pyrrolo[2,3-b]pyridin-4-yl)-1H-pyrazol-1-yl]azetidin-1-yl}-N-[(1S)-1-cyclopropyl-2,2,2-trifluoroethyl]pyrazine-2-carboxamide] | A (A means greater than or equal to 10)
N#CCC1(n2cc(-c3ncnc4[nH]ccc34)cn2)CN(c2ccc(C(=O)N[C@@H](C3CC3)C(F)(F)F)cc2)C1 [Example 38, 4-{3-(Cyanomethyl)-3-[4-(7H-pyrrolo[2,3-d]pyrimidin-4-yl)-1H-pyrazol-1-yl]azetidin-1-yl}-N-[(1S)-1-cyclopropyl-2,2,2-trifluoroethyl]benzamide] | A (A means greater than or equal to 10)
C[C@H](NC(=O)c1cnc(N2CC(CC#N)(n3cc(-c4ccnc5[nH]ccc45)cn3)C2)cn1)C(F)(F)F [Example 35, 5-{3-(Cyanomethyl)-3-[4-(1H-pyrrolo[2,3-b]pyridin-4-yl)-1H-pyrazol-1-yl]azetidin-1-yl}-N-[(1S)-2,2,2-trifluoro-1-methylethyl]pyrazine-2-carboxamide] | A (A means greater than or equal to 10)
C[C@H](NC(=O)c1ccc(N2CC(CC#N)(n3cc(-c4ncnc5[nH]ccc45)cn3)C2)c(F)c1)C(F)(F)F [Example 10, 4-{3-(Cyanomethyl)-3-[4-(7H-pyrrolo[2,3-d]pyrimidin-4-yl)-1H-pyrazol-1-yl]azetidin-1-yl}-3-fluoro-N-[(1S)-2,2,2-trifluoro-1-methylethyl]benzamide] | A (A means greater than or equal to 10)
CC(C)NC(=O)c1ccc(N2CC(CC#N)(n3cc(-c4ncnc5[nH]ccc45)cn3)C2)c(F)c1 [Example 3, 4-{3-(Cyanomethyl)-3-[4-(7H-pyrrolo[2,3-d]pyrimidin-4-yl)-1H-pyrazol-1-yl]azetidin-1-yl}-3-fluoro-N-isopropylbenzamide] | A (A means greater than or equal to 10)
CC(C)NC(=O)c1ccc(N2CC(CC#N)(n3cc(-c4ncnc5[nH]ccc45)cn3)C2)cc1 [Example 13, 4-{3-(Cyanomethyl)-3-[4-(7H-pyrrolo[2,3-d]pyrimidin-4-yl)-1H-pyrazol-1-yl]azetidin-1-yl}-N-isopropylbenzamide] | A (A means greater than or equal to 10)
C[C@@H](NC(=O)c1ccc(N2CC(CC#N)(n3cc(-c4ncnc5[nH]ccc45)cn3)C2)cc1F)C1CC1 [Example 39, 4-{3-(Cyanomethyl)-3-[4-(7H-pyrrolo[2,3-d]pyrimidin-4-yl)-1H-pyrazol-1-yl]azetidin-1-yl}-N-[(1R)-1-cyclopropylethyl]-2-fluorobenzamide] | A (A means greater than or equal to 10)
